Entries after “also recorded” stand apart in the source; their conditions may differ.
Assays:
[1] = system: HCT116 colon cancer cells; assay: MTT cell viability assay, HCT116; format: cell-based, human
Description: Aaptamine was tested against HCT116 colon cancer cells and cell viability was assessed after 48 h using an MTT (3-(4,5-dimethyl dimethylthiazol-2-yl)-2,5-diphenyltetrazolium bromide) assay. […] The results agreed with the findings of Kobayashi et al. that aaptamine at concentrations of 20–50 µM increased the expression of the cyclin-dependent kinase inhibitor p21, a protein known to act as a negative regulator of cell cycle progression, thus preventing cell proliferation. […] To alternatively explain the activity of aaptamine, we tested the compound for its ability to inhibit the chymotrypsin-like activity of a purified 20S proteasome from human erythrocytes. Proteasome inhibitors are validated anticancer agents. Aaptamine was able to inhibit the enzyme activity by 41% at 50 µM (Figure 2b). […] In our study, aaptamine had similar IC50 values for cancer cell growth inhibition and proteasome inhibition in vitro (~50 µM).
Human colon carcinoma cells (HCT116) were cultured in Dulbecco’s modified Eagle’s medium (DMEM, Invitrogen, MA, USA), supplemented with 10% fetal bovine serum (FBS, Sigma-Aldrich, MO, USA) and 1% antibiotic-antimycotic (Invitrogen, MA, USA) humidified at 37 °C with 5% CO2. […] Detection was performed using a SpectraMax M5 spectrometer (Molecular Devices, CA, USA) at 570 nm and cell viability was calculated and expressed relative to the vehicle control.

[2] = target: ADRA2C (Homo sapiens, UniProt P18825); assay: PathHunter β-arrestin assay, antagonist mode; format: cell-based
Chain of ADRA2C (P18825 whole entry): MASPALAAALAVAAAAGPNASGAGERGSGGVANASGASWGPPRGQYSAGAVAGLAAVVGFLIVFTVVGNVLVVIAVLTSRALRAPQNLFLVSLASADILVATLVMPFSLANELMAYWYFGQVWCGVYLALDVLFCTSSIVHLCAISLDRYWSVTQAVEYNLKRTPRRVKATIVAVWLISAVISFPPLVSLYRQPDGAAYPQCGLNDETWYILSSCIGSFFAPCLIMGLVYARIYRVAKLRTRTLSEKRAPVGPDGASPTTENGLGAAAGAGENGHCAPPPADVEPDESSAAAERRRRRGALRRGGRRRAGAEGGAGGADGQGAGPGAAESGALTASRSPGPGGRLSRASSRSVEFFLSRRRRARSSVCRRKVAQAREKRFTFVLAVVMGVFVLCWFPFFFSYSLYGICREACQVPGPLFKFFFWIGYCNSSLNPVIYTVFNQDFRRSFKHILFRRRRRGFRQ
Description: The assay was performed by DiscoverX Corporation (Fremont, CA) using PathHunter β -arrestin enzyme fragment complementation (EFC) technology, in a similar way to that described elsewhere [35, 36]. The PathHunter cell lines were taken from freezer stocks according to standard procedures. A total of 20 µL of cells were seeded into white 384-well plates and incubated at 37 °C for the appropriate time prior to testing.
In this assay format, the standard agonist was added at an EC80 concentration. To the plate that contained the cells, 5 µL of the 5X sample was added and incubated for 30 min at 37 °C or room temperature. After the incubation period, 5 µL of the 6X EC80 agonist in an assay buffer was added to the cells and incubated for additional 90 or 180 min at 37 °C or room temperature.

[3] = target: T1, CCR3 (Homo sapiens, UniProt P51677); assay: PathHunter β-arrestin assay, positive allosteric modulation (PAM) mode; format: cell-based; details: control agonist at EC20
T1 sequence (P51677 1-355): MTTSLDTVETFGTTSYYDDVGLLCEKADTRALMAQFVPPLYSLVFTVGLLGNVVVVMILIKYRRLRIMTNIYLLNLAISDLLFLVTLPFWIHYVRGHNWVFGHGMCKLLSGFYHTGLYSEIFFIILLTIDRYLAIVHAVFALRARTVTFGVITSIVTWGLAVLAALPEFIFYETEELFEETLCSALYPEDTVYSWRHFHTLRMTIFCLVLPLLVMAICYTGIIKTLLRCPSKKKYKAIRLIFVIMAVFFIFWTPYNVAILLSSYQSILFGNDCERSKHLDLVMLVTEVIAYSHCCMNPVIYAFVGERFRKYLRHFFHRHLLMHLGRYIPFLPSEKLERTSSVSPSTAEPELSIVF
Description: (§1) Hit validation was performed by subjecting the aaptamine to an agonist, antagonist, and positive allosteric modulation (PAM) secondary screen utilizing thirteen GPCR biosensor assays (Arrestin) against the following targets: ADRA2A, ADRA2C, ADRB2, CCR1, CCR3, CXCR3, CXCR7, DRD2L, DRD2S, DRD4, HTR1E, OPRK1, and SSTR1. The assays were performed at 10-point concentrations using three-fold serial dilutions in duplicate. For all the assay formats, the final assay vehicle concentration was 1%.
(§2) For PAM assays, the cells were preincubated with the sample followed by agonist induction at the EC20 concentration. To the cells, 5 µL of 5X sample was added and incubated for 30 min at 37 °C or room temperature. Following the incubation period, 5 µL of the 6X EC20 agonist prepared in an assay buffer was added to the cells and incubated for 90 or 180 min at 37 °C or room temperature. The percent activity of aaptamine was calculated following this formula: % modulation = 100% × ((mean RLU of test sample − mean RLU of EC20 control)/(mean RLU of MAX control ligand − mean RLU of EC20 control)).

[4] = target: T2, CXCR3 (Homo sapiens, UniProt P49682); assay: as above; format: cell-based; details: control agonist at EC20
T2 sequence (P49682 1-368): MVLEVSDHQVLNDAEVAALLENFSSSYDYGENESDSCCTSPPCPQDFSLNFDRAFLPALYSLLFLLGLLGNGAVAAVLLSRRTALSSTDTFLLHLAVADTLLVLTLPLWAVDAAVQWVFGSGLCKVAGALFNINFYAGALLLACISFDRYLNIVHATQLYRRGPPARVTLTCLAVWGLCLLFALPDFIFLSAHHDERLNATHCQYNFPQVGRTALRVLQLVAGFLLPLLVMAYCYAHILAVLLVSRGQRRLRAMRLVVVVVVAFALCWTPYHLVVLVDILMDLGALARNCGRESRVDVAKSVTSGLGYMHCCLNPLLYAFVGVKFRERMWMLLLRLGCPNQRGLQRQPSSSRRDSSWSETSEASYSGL
Description: as §1, §2

[5] = target: HTR1E (Homo sapiens, UniProt P28566); assay: as above; format: cell-based; details: dose-response, control agonist at EC20
Chain of HTR1E (P28566 whole entry): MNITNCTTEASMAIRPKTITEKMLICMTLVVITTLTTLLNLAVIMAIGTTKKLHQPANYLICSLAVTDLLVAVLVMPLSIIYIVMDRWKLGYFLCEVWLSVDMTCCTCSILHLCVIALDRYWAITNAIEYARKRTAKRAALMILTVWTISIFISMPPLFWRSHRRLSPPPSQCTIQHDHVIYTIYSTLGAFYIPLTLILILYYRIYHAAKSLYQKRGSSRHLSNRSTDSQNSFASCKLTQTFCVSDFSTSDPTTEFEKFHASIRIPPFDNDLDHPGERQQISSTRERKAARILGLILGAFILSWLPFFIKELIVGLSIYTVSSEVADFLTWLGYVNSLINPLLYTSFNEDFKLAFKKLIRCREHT

[6] = target: delta opioid receptor (δ-OR, OPRD1); design: method as in PMID 27744679; details: calcium mobilization pathway; read-out: EC50 agonist, delta opioid receptor; cited from earlier work
[7] = PAM mode, read-out: Dose-Response Maximal Response, % Activation
[8] = dose-response, read-out: EC50 (PAM)

With `COc1cc2ccnc3c2c(c1OC)NC=C3` [aaptamine] the “reduction of viability of HCT116” value ([1]; 50 µM (highest concentration tested), 48 h, MTT) was 50%, the IC50 ([1]; Homo sapiens, HCT-116, HCT116, 48 h, read-out: IC50 cancer cell growth inhibition) was about 50 µM and the Emax ([2]; dose-response analysis, read-out: Dose-Response Maximal Response, % Inhibition) was 104%. It also gave an IC50 ([2]; dose-response, antagonist mode) of 11.9 µM, an Emax [3, 7] of 33% and an EC50 [3, 8] of 16.2 µM. For the same compound, the Emax [4, 7] was 74.6%, the EC50 [4, 8] was 31.8 µM and the “validation of potentiator hit under PAM conditions” value [5] was “false positives; also recorded: did not validate”. The EC50 [6] was 5.1 µM.

Reference: PMC8466755, “GPCR Pharmacological Profiling of Aaptamine from the Philippine Sponge Stylissa sp. Extends Its Therapeutic Potential for Noncommunicable Diseases” (Molecules, 2021)
